According to patent US9988430B2, “Stable GLP-1 based GLP-1/glucagon receptor co-agonists” (Novo Nordisk A/S, priority 2014, dated 2018):
pEC50, pIC50: −log10 of the molar value. *1 amine or outer side, *2 acyl side, *3 side chain or, on linkers, in order; H or OH if unused. Where a SMILES comes first, the peptide text is derived from it. Side-chain parts run from the residue outwards. [ ]: non-standard residue; d: D form. The star is where a group is joined. C18 diacid = O=C(O)CCCCCCCCCCCCCCCCC(=O)*; γGlu = O=C(O)[C@H](CCC(=O)[*:2])N[*:1]; Desaminohistidyl = O=C(CCc1c[nH]cn1)*; AEEA = NCCOCCOCC(=O)O; Aib = CC(C)(N)C(=O)O

Experiments:
[1] = Assay (III): ThT fibrillation assay for physical stability; assay type: physicochemical; conditions: pH 7.5, 10 mM HEPES buffer, 37° C., shaking 960 rpm
Text: Assay (III): ThT Fibrillation Assay for the Assessment of Physical Stability of Peptide Compositions
The purpose of this assay is to assess the physical stability of the GLP-1 derivatives of the invention in aqueous solutions.
Low physical stability of a peptide may lead to amyloid fibril formation, which is observed as well-ordered, thread-like macromolecular structures in the sample, which eventually may lead to gel formation. This has traditionally been measured by visual inspection of the sample. However, that kind of measurement is very subjective and depending on the observer. Therefore, the application of a small molecule indicator probe is much more advantageous. Thioflavin T (ThT) is such a probe and has a distinct fluorescence signature when binding to fibrils [Naiki et al. (1989) Anal. Biochem. 177, 244-249; LeVine (1999) Methods. Enzymol. 309, 274-284]. […]
Here, as depicted in FIG. 1, F is the ThT fluorescence at the time t. The constant t0 is the time needed to reach 50% of maximum fluorescence. The two important parameters describing fibril formation are the lag-time calculated by t0−2τ and the apparent rate constant kapp 1/τ. […]
Incubation at given temperature, shaking and measurement of the ThT fluorescence emission were done in a Fluoroskan Ascent FL fluorescence platereader (Thermo Labsystems). […]

[2] = target: T1, human GLP-1 receptor (Homo sapiens, UniProt P43220); assay: Assay (II)(a): GLP-1 receptor binding, [125I]GLP-1 displacement, SPA on BHK membranes; conditions: displacement of [125I]GLP-1, membranes with human GLP-1 receptor; read-out: IC50 GLP-1R
T1 construct: expressed in transfected cells; host or cells: membranes of BHK cells, parent line BHKTS13, clone FCW467-12A
Procedure, shortened: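 Membranes from BHK cells expressing human GLP-1 receptor with WGA SPA beads, [125I]GLP-1(7-36)NH2 (480 pM added solution) and compound in HEPES pH 7.4 buffer with EGTA, MgCl2, Tween 20. Incubated 2 h at 30° C; SPA counts fitted by non-linear regression to IC50 in nM.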

[3] = target: T1, human GLP-1 receptor; assay: Assay (I)(a): GLP-1 receptor potency, CRE luciferase reporter gene assay in BHK cells; assay type: cell-based; conditions: BHK cells expressing human GLP-1 receptor, read-out: EC50 GLP-1R
Procedure, shortened: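 BHK cells (clone FCW467-12A/KZ10-1), 5×10EE3/well, exposed 3 h at 37° C to compound at 1×10EE-13 to 1×10EE-6 M final in medium with 2% ovalbumin and 0.2% Pluronic F-68. Luciferase luminescence read; EC50 (pM) from four-parameter fit.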

[4] = target: T2, human glucagon receptor (Homo sapiens, UniProt P47871); assay: Assay (I)(b): glucagon receptor potency, CRE luciferase reporter gene assay in BHK cells; assay type: cell-based; conditions: BHK cells expressing human glucagon receptor, read-out: EC50 GlucagonR
T2 construct: expressed in transfected cells; host or cells: membranes of BHK cells, clone BHK hGCGR A3*25
Protocol: Assay (I): GLP-1 and Glucagon Receptor Potency The purpose of this example was to test the activity or potency, of the GLP-1 derivatives of the invention, in vitro. The in vitro potency is the measure of human GLP-1 receptor (GLP-1R) or glucagon receptor (glucagonR) activation, respectively, in a whole cell assay. In vitro potency was determined by measuring the cellular response of human GLP-1 or glucagon receptor activation, respectively, in a reporter gene assay. The assay was performed in a BHK cell line that stably expresses either the human GLP-1 receptor or the human glucagon receptor and comprises the DNA for the cAMP response element (CRE) coupled to a promoter and the gene for firefly luciferase (CRE luciferase). […] When assay incubation was completed, the luciferase substrate (luciferin) was added and the enzyme converted luciferin to oxyluciferin and produces bioluminescence. The luminescence was measured as the readout for the assay. […] The cells were counted and adjusted to 5×10EE3 cells/50 μl (1×10EE5 cells/ml) in Assay Medium. […] Each assay plate was read in a Perkin Elmer TopCount NXT instrument. […] EC50 values were calculated by the software and reported in pM.

T1 sequence (P43220 24-463): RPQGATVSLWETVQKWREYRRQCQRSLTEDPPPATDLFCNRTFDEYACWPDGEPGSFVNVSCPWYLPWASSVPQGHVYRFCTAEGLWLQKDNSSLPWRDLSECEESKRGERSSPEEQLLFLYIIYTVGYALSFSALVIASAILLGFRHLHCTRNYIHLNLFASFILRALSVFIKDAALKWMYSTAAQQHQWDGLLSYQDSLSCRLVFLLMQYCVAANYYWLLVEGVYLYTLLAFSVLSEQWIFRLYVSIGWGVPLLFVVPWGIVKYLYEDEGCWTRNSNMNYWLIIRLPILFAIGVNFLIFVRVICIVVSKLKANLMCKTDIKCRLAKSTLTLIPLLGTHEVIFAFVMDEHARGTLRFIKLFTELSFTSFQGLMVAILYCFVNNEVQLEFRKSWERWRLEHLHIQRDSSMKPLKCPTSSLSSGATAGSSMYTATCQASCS
T2 sequence (P47871 26-477): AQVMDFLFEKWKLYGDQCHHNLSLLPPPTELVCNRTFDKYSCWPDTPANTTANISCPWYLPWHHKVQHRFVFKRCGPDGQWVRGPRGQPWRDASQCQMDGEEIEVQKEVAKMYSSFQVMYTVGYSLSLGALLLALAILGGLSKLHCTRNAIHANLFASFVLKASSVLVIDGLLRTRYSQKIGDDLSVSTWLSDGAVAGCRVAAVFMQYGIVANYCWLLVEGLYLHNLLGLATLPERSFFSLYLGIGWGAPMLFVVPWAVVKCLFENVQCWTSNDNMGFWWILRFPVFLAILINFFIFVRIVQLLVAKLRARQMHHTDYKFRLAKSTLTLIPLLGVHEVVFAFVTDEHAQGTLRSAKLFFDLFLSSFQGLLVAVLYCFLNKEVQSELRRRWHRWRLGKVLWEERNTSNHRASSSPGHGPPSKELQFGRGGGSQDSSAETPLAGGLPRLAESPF

CC[C@H](C)[C@H](NC(=O)[C@H](Cc1ccccc1)NC(=O)[C@H](CCC(=O)O)NC(=O)[C@H](CCCNC(=N)N)NC(=O)[C@H](C)NC(=O)[C@H](C)NC(=O)[C@H](CCC(N)=O)NC(=O)[C@H](CCCCNC(=O)CC[C@H](NC(=O)CC[C@H](NC(=O)COCCOCCNC(=O)COCCOCCNC(=O)CC[C@H](NC(=O)CCCCCCCCCCCCCCCCC(=O)O)C(=O)O)C(=O)O)C(=O)O)NC(=O)[C@H](CCC(=O)O)NC(=O)[C@H](CC(C)C)NC(=O)[C@H](Cc1ccc(O)cc1)NC(=O)[C@H](CCCCN)NC(=O)[C@H](CO)NC(=O)[C@@H](NC(=O)[C@H](CC(=O)O)NC(=O)[C@H](CO)NC(=O)[C@@H](NC(=O)[C@H](Cc1ccccc1)NC(=O)[C@@H](NC(=O)CNC(=O)[C@H](Cc1c[nH]cn1)NC(=O)C(C)(C)NC(=O)CCc1c[nH]cn1)[C@@H](C)O)[C@@H](C)O)C(C)C)C(=O)N[C@@H](C)C(=O)N[C@@H](Cc1c[nH]c2ccccc12)C(=O)N[C@@H](CC(C)C)C(=O)N[C@@H](CC(C)C)C(=O)N[C@@H](CCCCN)C(=O)NCC(=O)NCC(=O)NCC(=O)O [Example 13, N^ε22-[(4S)-4-carboxy-4-[[(4S)-4-carboxy-4-[[2-[2-[2-[[2-[2-[2-[[(4S)-4-carboxy-4-(17-carboxyheptadecanoylamino)butanoyl]amino]ethoxy]ethoxy]acetyl]amino]ethoxy]ethoxy]acetyl]amino]butanoyl]amino]butanoyl]-[Imp7,Aib8,His9,Lys18,Lys22,Arg26,Leu33,Gly36]-GLP-1-(7-37)-peptide] (Desaminohistidyl-[Aib]HGTFTSDVSKYLEK([γGlu-γGlu-AEEA-AEEA-γGlu-C18 diacid])QAAREFIAWLLKGGG-OH)
ThT assay pH 7.5: Lag time [1]: 45.0 h | pIC50 [2]: 9.30

CC[C@H](C)[C@H](NC(=O)[C@H](Cc1ccccc1)NC(=O)[C@H](CCCCNC(=O)COCCOCCNC(=O)COCCOCCNC(=O)CC[C@H](NC(=O)CC[C@H](NC(=O)CC[C@H](NC(=O)CCCCCCCCCCCCCCCCC(=O)O)C(=O)O)C(=O)O)C(=O)O)NC(=O)[C@H](CCCNC(=N)N)NC(=O)[C@H](C)NC(=O)[C@H](C)NC(=O)[C@H](CCC(N)=O)NC(=O)[C@H](CCC(=O)O)NC(=O)[C@H](CCC(=O)O)NC(=O)[C@H](CC(C)C)NC(=O)[C@H](Cc1ccc(O)cc1)NC(=O)[C@H](CCCNC(=N)N)NC(=O)[C@H](CO)NC(=O)[C@@H](NC(=O)[C@H](CC(=O)O)NC(=O)[C@H](CO)NC(=O)[C@@H](NC(=O)[C@H](Cc1ccccc1)NC(=O)[C@@H](NC(=O)CNC(=O)[C@H](Cc1c[nH]cn1)NC(=O)C(C)(C)NC(=O)CCc1c[nH]cn1)[C@@H](C)O)[C@@H](C)O)C(C)C)C(=O)N[C@@H](C)C(=O)N[C@@H](Cc1c[nH]c2ccccc12)C(=O)N[C@@H](CC(C)C)C(=O)N[C@@H](CC(C)C)C(=O)N[C@@H](CCCNC(=N)N)C(=O)O [Example 19, N^ε27-[2-[2-[2-[[2-[2-[2-[[(4S)-4-carboxy-4-[[(4S)-4-carboxy-4-[[(4S)-4-carboxy-4-(17-carboxyheptadecanoylamino)butanoyl]amino]butanoyl]amino]butanoyl]amino]ethoxy]ethoxy]acetyl]amino]ethoxy]ethoxy]acetyl]-[Imp7,Aib8,His9,Arg18,Glu22,Arg26,Lys27,Leu33,Arg34]-GLP-1-(7-34)-peptide] (Desaminohistidyl-[Aib]HGTFTSDVSRYLEEQAARK([AEEA-AEEA-γGlu-γGlu-γGlu-C18 diacid])FIAWLLR-OH)
pEC50 [3]: 11.15 | pEC50 [4]: 9.84
